Test results from patent US20100285959A1, “HERBICIDAL MIXTURES” (priority 2006, published 2010).

How the values were obtained:
[1] = system: barley (HORVX); experiment: Test 30 growth chamber, postemergence; format: in vivo, Hordeum vulgare
Method: A growth chamber test was conducted to evaluate the effects on the plant species wheat (TRZAW, Triticum aestivum L.) and barley (HORVX, Hordeum vulgare L.) with mixtures of Compound 1 and Compound 2 with glycerol. Wheat and barley seeds were planted in a sandy loam soil having 0.9% organic matter and a pH of 6.3. […] Wheat and barley plants were treated postemergence at the two leaf growth stage for Compound 1 and at the three leaf growth stage for Compound 2. Each treatment was replicated one time. […] Plants were watered as needed. […] Colby's Equation was used to determine herbicidal effects expected from the mixtures.

[2] = system: sicklepod (CASOB); experiment: Test 12 field trial, preemergence; format: in vivo, Cassia obtusifolia; set-up: scale not given here; details: Cpd 2 or Cpd 1 62 g a.i./ha, Diuron 2000 g a.i./ha
Description: (§1) In early-mid spring season, corn seeds (hybrid ‘Pioneer 3041’) were planted 5 cm deep and sugarcane nodes (variety RB-72.454) were planted 10 cm deep in separate plots in a clay soil having 2.6% organic matter and a pH of 5.6. Plots were 24 m long by 1.5 m wide with rows spaced 80 cm (corn) or 140 cm (sugarcane) apart. Corn seeds were spaced 15 cm apart and sugarcane nodes were spaced 10 cm apart within the rows. At the same time, weed seeds were broadcast over the surface of separate plots without a crop, one weed species per plot. The weed plots were rotary tilled to incorporate the weed seeds to a variety of depths. The field was managed using conventional tillage practices.

[3] = system: Italian cocklebur (XANSI); experiment: Test 12 field trial, preemergence; format: in vivo, Xanthium strumarium ssp. italicum; set-up: scale not given here; details: Cpd 2 or Cpd 1 62 g a.i./ha, Diuron 2000 g a.i./ha
Description: as §1

[4] = system: yellow nutsedge (CYPES); experiment: Test 14 field trial, preemergence, growth as percent of control; format: in vivo, Cyperus esculentus
Description: Corn seeds (hybrid ‘Pioneer 31G96 RR’) were planted in mid spring season, 3.8 cm deep in a clay loam soil having 2% organic matter and a pH of 6.6. Plots were 6.1 m long by 3.0 m wide with rows spaced 76 cm apart. Seeds were spaced 15 cm apart within the rows. The field was managed using conventional tillage practices. […] Yellow nutsedge was only evaluated 19 and 28 days after application, and ivyleaf morningglory could only be evaluated 28 days after application. […] Results are the means of the three replicates. This growth inhibition data was converted to results in the form of “plant growth as a percent of control plant growth” using the calculation “100 minus growth inhibition”. […] For “growth as a percent of control” data, Colby's Equation calculates the expected additive effect of herbicidal mixtures having two active ingredients as follows:
Ga+b=GaGb/100 • wherein Ga+b is the growth as a percent of control of plants treated with the mixture expected from additive contribution of the individual components, • Ga is the observed growth as a percent of control of plants treated with the first active ingredient at the same use rate as in the mixture, and • Gb is the observed growth as a percent of control of plants treated with the second active ingredient at the same use rate as in the mixture. For mixtures having three active ingredients, Colby's Equation to calculate the expected additive effect of herbicidal mixtures is as follows:
Ga+b+c=GaGbGc/10,000 • wherein Ga and Gb are as defined above and • Ga+b+c is the growth as a percent of control of plants treated with the mixture expected from additive contribution of the individual components, and • Gc is the observed growth as a percent of control of plants treated with the third active ingredient at the same use rate as in the mixture. When these two forms of Colby's Equation are used, if the observed effects on weeds are less than the expected values, the mixture is synergistic.

[5] = system: redroot pigweed (AMARE); experiment: Test 21 growth chamber, postemergence; format: in vivo, Amaranthus retroflexus; details: 19 DAA
Method: A test was conducted to evaluate the effects on winter barley (HORVW, Hordeum vulgare L.), winter wheat (TRZAW, Triticum aestivum L.), and several weed species, of mixtures of Compound 2 with the commercial herbicide (2,4-dichlorophenoxy)acetic acid (2,4-D), an auxin mimic. […] Plants were treated postemergence at the 2-4 leaf growth stage, and each treatment was replicated one time. […] Plants were watered as needed. […] Results are from single replicates.

[6] = system: common lambsquarters (CHEAL); experiment: Test 2 field trial, preemergence; format: in vivo, Chenopodium album; set-up: scale not given here; details: 28 DAA
Description: (§2) Corn seeds (hybrid ‘Pioneer 31G96’) were planted in mid spring season, 3.8 cm deep in a clay loam soil having 2% organic matter and a pH of 6.6. Plots were 6.1 m long by 3.0 m wide with rows spaced 76 cm apart. Seeds were spaced 15 cm apart within the rows. The field was managed using conventional tillage practices. […] A few of the weed species could not be evaluated at every timing. […] Results are the means of the three replicates.

[7] = system: common lambsquarters (CHEAL); experiment: Test 22 growth chamber, postemergence; format: in vivo, Chenopodium album; details: 25 DAA
Method: A test was conducted to evaluate the effects on winter barley (HORVW, Hordeum vulgare L.), winter wheat (TRZAW, Triticum aestivum L.), and several weed species of mixtures of Compound 2 with the commercial herbicides (2,4-dichlorophenoxy)acetic acid (2,4-D) and (4-chloro-2-methylphenoxy)acetic acid (MCPA), auxin mimics. […] Plants were treated postemergence at the 2-4 leaf growth stage, except KCHSC, SASKR and STEME which were in the 4-8 leaf growth stage. Each treatment was replicated one time. […] Plants were watered as needed. […] Results are from single replicates.

[8] = system: yellow nutsedge (CYPES); experiment: Test 2 field trial, preemergence; format: in vivo, Cyperus esculentus; set-up: scale not given here
Description: as §2

[9] = g a.i./ha: Cpd 2 25, Atrazine 250
[10] = g a.i./ha: Cpd 2 50, Atrazine 500
[11] = g a.i./ha: Cpd 2 75, Atrazine 750
[12] = g a.i./ha: Cpd 2 100, Atrazine 1000
[13] = g a.i./ha: Cpd 2 150, Atrazine 1500
[14] = 18 DAA, g a.i./ha: Cpd 2 25, Atrazine 250
[15] = 18 DAA, g a.i./ha: Cpd 2 50, Atrazine 500
[16] = 18 DAA, g a.i./ha: Cpd 2 75, Atrazine 750
[17] = 18 DAA, g a.i./ha: Cpd 2 100, Atrazine 1000
[18] = 18 DAA, g a.i./ha: Cpd 2 150, Atrazine 1500
[19] = 28 DAA, g a.i./ha: Cpd 2 25, Atrazine 250
[20] = 28 DAA, g a.i./ha: Cpd 2 50, Atrazine 500
[21] = 28 DAA, g a.i./ha: Cpd 2 75, Atrazine 750
[22] = 28 DAA, g a.i./ha: Cpd 2 100, Atrazine 1000
[23] = 28 DAA, g a.i./ha: Cpd 2 150, Atrazine 1500
[24] = 55 DAA, g a.i./ha: Cpd 2 25, Atrazine 250
[25] = 55 DAA, g a.i./ha: Cpd 2 50, Atrazine 500
[26] = 55 DAA, g a.i./ha: Cpd 2 75, Atrazine 750
[27] = 55 DAA, g a.i./ha: Cpd 2 100, Atrazine 1000
[28] = 55 DAA, g a.i./ha: Cpd 2 150, Atrazine 1500

| SMILES | CASOB Obs ([2]; 15 DAA) | CASOB Obs ([2]; 29 DAA) | CASOB Obs ([2]; 48 DAA) | CASOB Obs ([2]; 61 DAA) | XANSI Obs ([3]; 15 DAA) | XANSI Obs ([3]; 29 DAA) | XANSI Obs ([3]; 48 DAA) | XANSI Obs ([3]; 61 DAA) | CHEAL Obs [6, 9] | CHEAL Obs [6, 10] | CHEAL Obs [6, 11] | CHEAL Obs [6, 12] | CHEAL Obs [6, 13] | CYPES Obs [8, 14] | CYPES Obs [8, 15] | CYPES Obs [8, 16] | CYPES Obs [8, 17] | CYPES Obs [8, 18] | CYPES Obs [8, 19] | CYPES Obs [8, 20] | other results |
| --- | --- | --- | --- | --- | --- | --- | --- | --- | --- | --- | --- | --- | --- | --- | --- | --- | --- | --- | --- | --- | --- |
| Nc1nc(C2CC2)nc(C(=O)O)c1Cl [Compound 1, 6-amino-5-chloro-2-cyclopropyl-4-pyrimidinecarboxylic acid] | 60 | 70 | 90 | 90 | 40 | 90 | 90 | 60 | – | – | – | – | – | – | – | – | – | – | – | – | HORVX Obs ([1]; 18 DAA, Cpd 1 1 g a.i./ha): 0%; HORVX Obs ([1]; 18 DAA, Cpd 1 4 g a.i./ha): 20%; HORVX Obs ([1]; 18 DAA, Cpd 1 16 g a.i./ha): 40% |
| COC(=O)c1nc(C2CC2)nc(N)c1Cl [Compound 2, methyl 6-amino-5-chloro-2-cyclopropyl-4-pyrimidinecarboxylate] | 60 | 80 | 60 | 50 | 0 | 70 | 60 | 40 | 90 | 100 | 100 | 100 | 100 | 12 | 18 | 22 | 25 | 30 | 0 | 0 | HORVX Obs ([1]; 17 DAA, Cpd 2 1 g a.i./ha): 25%; HORVX Obs ([1]; 17 DAA, Cpd 2 4 g a.i./ha): 30%; HORVX Obs ([1]; 17 DAA, Cpd 2 16 g a.i./ha): 35%; Obs growth % of control ([4]; 19 DAA, 75 g a.i./ha): 85%; Obs growth % of control ([4]; 19 DAA, 100 g a.i./ha): 78%; Obs growth % of control ([4]; 28 DAA, 75 g a.i./ha): 85%; Obs growth % of control ([4]; 28 DAA, 100 g a.i./ha): 90%; Postemergence AMARE Obs ([5]; Cpd 2 alone 16 g a.i./ha): 60; Postemergence CHEAL Obs ([7]; Cpd 2 alone 4 g a.i./ha): 50; Postemergence CHEAL Obs ([7]; Cpd 2 alone 8 g a.i./ha): 50; Postemergence CHEAL Obs ([7]; Cpd 2 alone 16 g a.i./ha): 65; CYPES Obs [8, 21]: 0; CYPES Obs [8, 22]: 0; CYPES Obs [8, 23]: 0; CYPES Obs [8, 24]: 0; CYPES Obs [8, 25]: 0; CYPES Obs [8, 26]: 0; CYPES Obs [8, 27]: 0; CYPES Obs [8, 28]: 10 |
| CCNc1nc(Cl)nc(NC(C)C)n1 [Atrazine, atrazine, reference compound] | – | – | – | – | – | – | – | – | 100 | 100 | 100 | 100 | 100 | 13 | 18 | 40 | 28 | 27 | 0 | 5 | CYPES Obs [8, 21]: 0; CYPES Obs [8, 22]: 2; CYPES Obs [8, 23]: 0; CYPES Obs [8, 24]: 10; CYPES Obs [8, 25]: 13; CYPES Obs [8, 26]: 0; CYPES Obs [8, 27]: 62; CYPES Obs [8, 28]: 60 |
| CCc1cccc(C)c1N(C(=O)CCl)[C@@H](C)COC [S-Metolachlor, S-metolachlor, reference compound] | – | – | – | – | – | – | – | – | – | – | – | – | – | – | – | – | – | – | – | – | Obs growth % of control ([4]; 28 DAA, 1870 g a.i./ha): 8% |
| O=C(O)COc1ccc(Cl)cc1Cl [2,4-D, (2,4-dichlorophenoxy)acetic acid] | – | – | – | – | – | – | – | – | – | – | – | – | – | – | – | – | – | – | – | – | Postemergence AMARE Obs ([5]; 2,4-D alone 125 g a.i./ha): 50; Postemergence AMARE Obs ([5]; 2,4-D alone 250 g a.i./ha): 50; Postemergence CHEAL Obs ([7]; 2,4-D or MCPA alone 250 g a.i./ha): 60 |
